Experimental data as given in US9707239B2, “Compounds that modulate oxidative stress” (vTv Therapeutics LLC, priority 2011, dated 2017).
Entries after “also recorded” stand apart in the source; their conditions may differ.

Legend:
Assay type in all cases: cell-based, human
HMOX1 [1] = test: HMOX1 protein expression by immunofluorescence (primary screen, high-content imaging); conditions: NHLF cells
Procedure: NHLF cells were grown to 80% confluency and harvested by washing once with HEPES and then trypsinizing. Equal numbers ([…]) of NHLF cells were plated in 384 well optilux tissue culture (BD) plates. Cells were incubated overnight in FGM-2 medium prior to exposure to compound. Cells were treated with either DMSO or compound for 16 h. Cells were wash 2× with 1×PBS and fix with 4% Paraformaldyhyde for 15 min. The fixed cells were then permeablized with 0.1% Triton X-100 and blocked with 5% BSA in 1× PBS 0.05% Tween-20 for 15 min. HO-1 antibody (abcam) was used for immunostaining at 1:300 dilution in 1% BSA in 1×PBS for 1 hr. Cells were washed 2× with 1×PBS and secondary antibody goat anti-mouse Alexa 488 1:400 dilution (Invitrogen); Hoechst 1:2000 (Invitrogen) in 1% BSA in 1×PBS for 1 hr. The plate was washed 5× with 1×PBS and read at Hoechst Excitation (“Ex.”) 360 Emission (“Em.”) 535; Alexa 488 Ex. 480 Em. 535 using GE InCell 1000. Results were analyzed using GE InCell Analyzer software and represented as the fold change above DMSO treated cells.
A rapid, quantitative screening assay to detect HMOX1 levels in cells based on an immunofluorescent microscopy using an automated high-content imaging system was developed. […] The data are arrayed as in an IR chart with a calculated mean value for the plate and the 3-sigma upper and lower-confidence limits (UCL and LCL). […]

HMOX1 [2] = test: mRNA expression (Quantigene Plex) in NHLF cells: HMOX1; conditions: Table 5, 6 h, mRNA normalized to GAPDH, above DMSO treated cells
Procedure: (§1) Secondary growth of NHLF cells were used for all assays. Cell were thawed and then placed into culture in T225 flasks. The cells were grown to 80% confluency and harvested by washing once with HEPES buffered saline solution and then trypsinizing. Equal numbers (7×10^3 cells per well) of NHLF cells were plated in 96 well tissue culture plates (Corning). Cells were incubated overnight in FGM-2 medium prior to exposure to compound. Cells were treated with either DMSO or a compound as described below for 6 h. Preparation of cell lysates was carried out according to instructions using the Quantigene Reagent system 2.0 protocol (Panomics). mRNA induction was detected from cell lysate using the Quantigene Plex 2.0 Assay Kit (Panomics) on the Luminex platform (BIO-RAD). Expression of GAPDH mRNA was used as the internal control for the Quantigen Plex 2.0 Assay. The data in Tables 5 and 6 represents the fold change of target mRNA expression, normalized to control values, above DMSO treated cells.

HSPA6 = test: mRNA expression (Quantigene Plex) in NHLF cells: HSPA6; conditions: Table 5, 6 h, mRNA normalized to GAPDH, above DMSO treated cells
Procedure: as §1

ICAM = test: mRNA expression (Quantigene Plex) in NHLF cells: ICAM; conditions: Table 5, 6 h, mRNA normalized to GAPDH, above DMSO treated cells
Procedure: as §1

GADD45A = test: mRNA expression (Quantigene Plex) in NHLF cells: GADD45A; conditions: Table 5, 6 h, mRNA normalized to GAPDH, above DMSO treated cells
Procedure: as §1

Keap1 = test: HMOX1 induction after Keap1 silencing (shRNA); conditions: NHLF cells, FIG. 6
Procedure: Normal human lung fibroblasts were plated in a 12-well tissue culture dish at 16,000 cells/well and allowed to attach overnight. Regular medium was then replaced with 200 μl of fresh growth medium containing 8 μg/ml hexadimethrine bromide (polybrene). Lentiviral transduction particles were then added in the following amounts: Control shRNA (1.1×10^7 TU/ml, Sigma, cat# SHC002V), 15 μl for an MOI of 10; KEAP-1 shRNA (6.3×10^6 TU/ml, Sigma, cat# SHCLNV-TRCN0000046092), 63 μl for an MOI of 20. After 4 hours in the cell culture incubator, another 200 μl of growth medium was added on top of the original volume. Cells were replenished the next day with fresh complete growth medium and were allowed to recover for 24 hours, after which selection medium was applied (complete medium with 1 μg/ml puromycin).
Another method of testing the role of the Nrf2 regulatory pathway on compound activity is to determine the effect of silencing Keap1 on HMOX1 gene expression. It is known that deleting Keap1 will result in the induction of Nrf2 dependent genes but not, to any significant degree, HMOX1. The proposed explanation for this observation is that HMOX1 requires the concomitant derepression of Bach1 activity and that this event is more dependent on active processes (e.g., heme binding, changes in redox potential of the cell, phosphorylation of Bach1, etc.). We therefore tested the ability of Compound 13 and tool compounds to induce HMOX1 in the presence of silencing of Keap1 in normal human lung fibroblasts.
Normal human lung fibroblasts were tested with DMSO, CoPP, Compound 13, and two derivatives including Compound 4 and Compound 8. An electrophile, Compound 1, was also included in the test set. […] On the other hand, induction of HMOX1 by the electrophile Compound 1 was inhibited.

In the case of `O=C(Nc1ccc2cn[nH]c2c1)c1ccc2[nH]c(Nc3nc4ccccc4s3)nc2c1` [Compound 13, 2-(Benzothiazol-2-ylamino)-1H-benzoimidazole-5-carboxylic acid (1H-indazol-6-yl)-amide], the EC50 (HMOX1 [1]; Homo sapiens, immunofluorescence, dose response, FIG. 2, read-out: effective potency (HMOX1 induction)) is reported as less than 1000 nM, the “averaged signal intensity for HMOX1 staining versus upper confidence limit (UCL)” value (HMOX1 [1]; primary screen, FIG. 1) is reported as “significantly greater than the upper confidence limit” and the “HMOX1 (fold induction)” value (HMOX1 [2]) is reported as 25 fold induction. The “HSPA6 (fold induction)” value (HSPA6) was “did not induce”, the “HSPA6 (fold induction)” value (HSPA6; listed as #13) was 0.96 fold induction and the “ICAM (fold induction)” value (ICAM) was “nor did it induce”. The “ICAM (fold induction)” value (ICAM; listed as #13) was 1.1 fold induction, the “GADD45A (fold induction)” value (GADD45A) was 0.89 fold induction and the “HMOX1 induction in the presence of Keap1 silencing” value (Keap1) was “unaffected in their ability to induce HMOX1 in the presence of Keap1 silencing; also recorded: behaves similarly to CoPP induction”.
